In publication PMC11347135 (2024):

Columns and labels:
[1] = system: d(CGTATACG)2 (DNA, duplex) CGTATACG; assay: UV melting at 260 nm; conditions: 100 mM KCl, 5 mM MgCl2; 20 mM sodium cacodylate pH 7.3; 3 μM DNA, DNA:compound 1:4; 1 °C/min
[2] = system: d(CGTATACG)2 (DNA, duplex) CGTATACG; assay: X-ray crystallography, 1.58 Å

Tm increase [1] | binding ([2]; 50 mM NaCl, 10 mM MgCl2, 25 mM bis-tris pH 7.0, 15% MPD, 20 °C, 0.3 mM DNA, DNA:DA5 1:1) | binding ([2]; 200 mM KCl, 6 mM MnCl2, 50 mM MES pH 6.3, 10% PEG400, 20 °C, 0.5 mM DNA, 1 mM DA4) | Compound
~ 8.6 °C | yes |  | c1ccc2c(NCCCCCNc3c4ccccc4nc4ccccc34)c3ccccc3nc2c1
~ 5.8 °C |  | yes | c1ccc2c(NCCCCNc3c4ccccc4nc4ccccc34)c3ccccc3nc2c1
